Measured values taken from patent US6303596A, “Use of taurolidine for treatment of leukemias” (priority 2000, dated 2001).

Tests used:
tissue factor (TF) = assay: TF activity (coagulation) assay on LPS-induced PBMC treated in whole blood; format: cell-based, human
Experimental: In order to determine if taurolidine would inhibit LPS-induced TF expression in PBMC in their native milieu, i.e., whole blood, a tissue factor activity assay was performed. LPS (10 ng/ml) and taurolidine (100-500 μg/ml) or equal dilutions of the taurolidine vehicle were added to 5 ml aliquots of heparinized blood, and the blood was incubated in 50 ml centrifuige tubes at 37° C., rotating on a horizontal rotator at 120 rpm. After 4 hours, PBMC were purified from the blood using Histopaque as described previously. Cells were lysed by 3 freeze-thaw cycles, and used as a source of TF in coagulation assays. For these assays, 50 μl of lysate (at 2×10^7 cells/ml) was added to 50 μl pooled normal human plasma, incubated for 30 seconds at 37° C., then 50 μl of 25 MM CaCl2 was added and clot formation assayed using a Diagnostica Stago ST4 coagulometer. Protein content of the cell samples was determined by bicinchoninic acid assay (Pierce Chemical Company, Rockford, Ill.), and used to normalize the clotting data. A standard curve was made with descyto TF reconstituted in PS/PC vesicles according to the method of Mimms et al. (Mimms, et al., "Phospholipid vesicle formation and transmembrane protein incorporation using octyl glucoside," Biochemistry 20:833-840 (1981)). One unit of TF was defined as that which caused clot formation at 50 seconds of incubation with CaCl2. The TF activity assays were performed on LPS-induced PBMC after 4 hour treatment in whole blood. A dose-response effect of taurolidine on monocyte TF is illustrated in Table II. […] Thus, higher concentrations of taurolidine were required to inhibit TF when the PBMC were treated with whole blood when compared to PBMC in culture medium. Further, lower concentrations of taurolidine were required to down-regulate TF expression than were needed to induce apoptosis as described below.
^a Heparinized blood was incubated in the presence of LPS and varying
amounts of taurolidine, then PBMC were purified, and coagulation assays
performed on cell lysates. Units of TF per mg protein were calculated as
described above, and data expressed as percentage of LPS-only ("control")
samples. Data shown are mean ± S.D. of two experiments.

Monocytes = assay: TUNEL / propidium iodide flow cytometry, monocytes in PBMC, culture medium; format: cell-based, human
Experimental: FIG. 14A and FIG. 14B are terminal deoxytransferase-mediated deoxyuridine-triphosphate-biotin nick end labeling assay (TUNEL) analyses of control cells and taurolidine-treated PBMC, respectively. Cells were incubated with 100 μg/ml taurolidine for six hours and processed for TUNEL analysis as given below. Parallel samples were stained with FITC-conjugated anti-CD14 and propidium iodide (PI) as described below. Ten thousand events were recorded per sample. TUNEL signal (x-axis) is a measure of DNA fragmentation, which FSC (y-axis) is related to cell size. TUNEL-negative lymphocytes are bounded by the rectangle R1, while TUNEL-negative monocytes (CD14 positive cells) are bounded by the rectangle R2. The vertical line indicates demarcation between TUNEL-negative and TUNEL-positive cells. There were minimal numbers of PI-positive cells in the six hour samples (see Table IV).
In the second method, DNA fragmentation was detected via TUNEL assay according to the manufacturer's instructions. With this methodology, 2×10^6 cells were fixed with 2% paraformaldehyde, permeabilized with 0.1% Triton X-100/0.1% citrate, incubated at 37° C. with terminal deoxynucleotidyl transferase and FITC-dUTP, rinsed and analyzed by flow cytometry. Enhanced FITC signal indicates apoptosis-specific DNA fragmentation. Gavriali, et al, "Identification of programmed cell death in situ via specific labeling of nuclear DNA fragmentation," J Cell Biol 119:493 (1992). Parallel aliquots of unfixed cells were treated with PI and FITC-conjugated anti-CD14 and analyzed by flow cytometry, in order to identify cells with permeable cell membranes (since PI binds to DNA but is excluded from cells with intact plasma membranes) and also to determine the cell-specificity of the apoptotic signal.
A Becton-Dickinson FACSCalibur instrument was used for flow cytometric analysis of cells. Assessment of cell diameter (forward scatter; FCS) and granularity (side scatter; SSC).was carried out on unfixed cells. Discrimination between lymphocytes and monocytes was made possible by their characteristic differences in FSC and SSC, and confirmed by staining monocytes with FITC-labeled anti-CD14 antibodies and lymphocytes with a combination of FITC-conjugated anti-CD3 and PE-conjugated anti-CD19. After incubation with taurolidine (with or without concomitant LPS treatment), cells were rinsed twice in phosphate-buffered saline containing 0.1% bovine serum albumin (PBSA) and 1×10^6 cells were resuspended in 0.1 ml PBSA. After 5 μl FITC-conjugated anti-CD14 was added, cells were incubated in the dark on ice for 15 minutes and then centrifuged at 250×g. Cells were resuspended in 500 μl PBSA containing 5 μg/ml PI and subjected to flow cytometry.
Consequently, TUNEL analysis was performed on PBMC at 3, 6, or 24 hours after treatment with 25 to 100 μg/ml taurolidine. Aliquots of harvested cells were also labeled with FITC-conjugated anti-CD14 antibodies and PI, which allowed identification of monocytes (CD14-positive cells) and cells with damaged cell membranes (PI-positive cells). […] Thus, nearly 75% of the monocytes were TUNEL-positive following treatment with 100 μg/ml taurolidine for six hours. Confirmation that the TUNEL-positive cells were monocytes was obtained by staining with FITC-conjugated anti-CD14.
^a Analysis by flow cytometry after staining cells with FITC-conjugated
anti-CD14 and PI, and processing for TUNEL. Data are mean ± SD of two
^b Percent of cells present in the TUNEL-negative region in control

[1] = septic patients, up to 20 grams for 2-5 consecutive days; cited from earlier work

Structure (SMILES): O=S1(=O)CCN(CN2CCS(=O)(=O)NC2)CN1 [taurolidine, 4,4'-methylenebis(perhydro-1,2,4-thiadiazin 1,1-dioxide)]
- activity at 100 µg/mL (tissue factor (TF); Homo sapiens, PBMC, 100 μg/ml taurolidine, 4 h, mean ± S.D. of two experiments, read-out: coagulation activity of LPS-induced PBMC, % of control): 87.7 ± 6.6%
- inhibition at 100 µg/mL (tissue factor (TF); Homo sapiens, PBMC, 100 μg/ml taurolidine, 4 h, read-out: decrease of TF activity): 12%
- activity at 200 µg/mL (tissue factor (TF); Homo sapiens, PBMC, 200 μg/ml taurolidine, 4 h, mean ± S.D. of two experiments, read-out: coagulation activity of LPS-induced PBMC, % of control): 41.7 ± 8%
- inhibition at 200 µg/mL (tissue factor (TF); Homo sapiens, PBMC, 200 μg/ml taurolidine, 4 h, read-out: decrease of TF activity): ~60%
- activity at 500 µg/mL (tissue factor (TF); Homo sapiens, PBMC, 500 μg/ml taurolidine, 4 h, mean ± S.D. of two experiments, read-out: coagulation activity of LPS-induced PBMC, % of control): 26.5 ± 10.6%
- inhibition at 500 µg/mL (tissue factor (TF); Homo sapiens, PBMC, 500 μg/ml taurolidine, 4 h, read-out: loss of TF activity): ~75%
- reduction of TF activity of LPS-induced monocytes (tissue factor (TF); taurolidine as low as 200 μg/ml): significant reduction
- TUNEL-positive (apoptotic) monocytes (Monocytes; 100 μg/ml taurolidine, 6 h, culture medium, 360 min): approximately 75%
- induction of apoptosis at lower doses (Monocytes; 25 and 50 μg/ml taurolidine, versus 100 μg/ml): lower levels of induction of apoptosis
- cytotoxicity at 100 µg/mL (Monocytes; Homo sapiens, Monocyte, 100 μg/ml taurolidine, 6 h, culture medium, read-out: TUNEL-positive (apoptotic) monocytes): ~75%
- viability at 25 µg/mL (Monocytes; Homo sapiens, Monocyte, monocytes, 25 μg/ml, 6 h, percent of control, read-out: % TUNEL-Negative): 88.3 ± 2.7%
- viability at 50 µg/mL (Monocytes; Homo sapiens, Monocyte, monocytes, 50 μg/ml, 6 h, percent of control, read-out: % TUNEL-Negative): 67.8 ± 18%
- viability at 100 µg/mL (Monocytes; Homo sapiens, Monocyte, monocytes, 100 μg/ml, 6 h, percent of control, read-out: % TUNEL-Negative): 25.1 ± 11.8%
- onset of apoptosis after treatment (Monocytes; monocytes): detectable within four to six hours
- toxicity in humans [1]: has not been associated with toxicity
